Results as given in patent US12338219B2, “Antimalarial agents” (Merck Sharp & Dohme LLC, priority 2019, dated 2025).

system: parasites (ring stage parasites, parasite growth); assay: Parasite LDH growth assay (Parasite Assay), antiparasite potency; type: cell-based; conditions: 72 h, 72 hours growth, LDH readout; Table 3
Summary of the method: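 Ring-stage culture was adjusted to 0.7% parasitemia and 2% haematocrit in bicarbonate-buffered RPMI-Hepes with heat-inactivated human serum and 0.5% albumax, then added to compound. Plates were incubated 72 h at 37 °C in gassed humidified boxes, frozen at −80 °C overnight and thawed, and growth was read by LDH assay.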

Row | Structure (SMILES) | EC50 [nM]
1 | CCC1(CC)CC(=O)N([C@H](CCOC)[C@@H]2C[C@H]2C(=O)N[C@@H]2CC(C)(C)Oc3ccccc32)C(=N)N1 [Example 1B] | 250
2 | CCC1(CC)CC(=O)N(CC2CC2C(=O)N[C@H]2CCOc3ccccc32)C(=N)N1 (stereo partly shown) [Example 4C] | 85
3 | Cc1ccc2c(c1)[C@@H](NC(=O)[C@@H]1C[C@H]1CN1C(=N)NC(C)(C)CC1=O)CC(C)(C)O2 [Example 128] | 280
4 | CC1(C)CC(=O)N([C@H](c2cccnc2)[C@@H]2C[C@H]2C(=O)N[C@H]2CC(C)(C)Oc3c(C(F)(F)F)ccc(F)c32)C(=N)N1 [Example 115B] | 1
5 | CC1(C)CC(=O)N([C@H](c2cccnc2)[C@@H]2C[C@H]2C(=O)NC2CC(C)(C)Oc3c(Cl)cc(Cl)cc32)C(=N)N1 (stereo partly shown) [Example 94A] | 0.9
6 | COCC[C@H]([C@@H]1C[C@H]1C(=O)N[C@H]1CC(C)(C)Oc2cccc(F)c21)N1C(=N)NC(C)(C)CC1=O [Example 88A] | 5.2
7 | CC1(C)CC(=O)N([C@H](c2cccnc2)[C@H]2[C@H](C(=O)N[C@H]3C[C@H](C(F)(F)F)Oc4ccccc43)C2(C)C)C(=N)N1 [Example 43A] | 4
8 | CC[C@]1(C)CC(=O)N([C@H](c2cncc(F)c2)[C@@H]2C[C@H]2C(=O)N[C@@H]2c3ccccc3OCC2(C)C)C(=N)N1 [Example 102A] | 0.8
9 | CC1[C@@H]([C@@H](c2cccnc2)N2C(=N)NC(C)(C)CC2=O)[C@@H]1C(=O)N[C@H]1CC(C)(C)Oc2ccccc21 (stereo partly shown) [Example 57A] | 3.2
10 | CCC1(CC)CC(=O)N([C@H](c2cccnc2)[C@@H]2C[C@H]2C(=O)N[C@@H]2c3ccccc3OC(C)(C)[C@H]2O)C(=N)N1 [Example 11B] | 24
11 | COCC[C@H]([C@@H]1C[C@H]1C(=O)N[C@H]1C[C@H](C(F)(F)F)Oc2ccccc21)N1C(=N)NC(C)(C)CC1=O [Example 24B] | 2
12 | COCC[C@H]([C@@H]1C[C@H]1C(=O)N[C@@H]1CC(C)(C)Oc2ccc(C(F)(F)F)cc21)N1C(=N)NC(C)(C)CC1=O [Example 110A] | 21
13 | CC1[C@@H]([C@H](c2cccnc2)N2C(=N)NC(C)(C)CC2=O)[C@@H]1C(=O)N[C@H]1CC(C)(C)Oc2ccccc21 (stereo partly shown) [Example 57B] | 100
14 | COCC[C@H]([C@@H]1C[C@H]1C(=O)NC1CC(C)(C)Oc2c(F)cccc21)N1C(=N)NC(C)(C)CC1=O (stereo partly shown) [Example 111A] | 24
15 | CC1(C)CC(=O)N([C@H](c2cccnc2)[C@@H]2C[C@H]2C(=O)N[C@@H]2CC(C)(C)Oc3c(C(F)(F)F)ccc(F)c32)C(=N)N1 [Example 115A] | 6.6
16 | COCC[C@H]([C@@H]1C[C@H]1C(=O)N[C@H]1CC(C)(C)Oc2cc(C)c(Cl)cc21)N1C(=N)NC(C)(C)CC1=O [Example 137B] | 6.4
17 | COCC[C@H]([C@@H]1C[C@H]1C(=O)N[C@H]1CC(C)(C)Oc2c(C(F)(F)F)ccc(F)c21)N1C(=N)NC(C)(C)CC1=O [Example 114B] | 5.1
18 | CCC1(CC)CC(=O)N([C@H](CCOC)[C@@H]2C[C@H]2C(=O)N[C@H]2C[C@H](C(F)(F)F)Oc3ccccc32)C(=N)N1 [Example 14] | 0.9
19 | CC1(C)CC(=O)N([C@@H](c2cncc(Cl)c2)[C@@H]2C[C@H]2C(=O)N[C@H]2CC(C)(C)Oc3ccccc32)C(=N)N1 [Example 58A] | 210

Row | Structure (SMILES) | EC50 [nM]
20 | CC1(C)CC(=O)N(C[C@@H]2C[C@H]2C(=O)N[C@H]2CC(C)(C)Oc3cccc(Cl)c32)C(=N)N1 [Example 119] | 26
21 | CC1(C)CC(=O)N([C@H](c2cncc(Cl)c2)[C@@H]2C[C@H]2C(=O)N[C@@H]2c3ccccc3OC(C)(C)[C@H]2O)C(=N)N1 [Example 59] | 3.8
22 | CC1(C)CC(=O)N([C@H](c2cccnc2)[C@@H]2C[C@H]2C(=O)NC2CC(C)(C)Oc3c(F)cc(F)cc32)C(=N)N1 (stereo partly shown) [Example 122A] | 2.3
23 | Cc1ccc2c(c1)OC(C)(C)C[C@@H]2NC(=O)[C@@H]1C[C@H]1CN1C(=N)NC(C)(C)CC1=O [Example 84] | 289
24 | CC1C[C@H](NC(=O)[C@@H]2C[C@H]2CN2C(=N)NC(C)(C)CC2=O)c2cc(F)ccc2O1 (stereo partly shown) [Example 139A] | 99
25 | CCC1(CC)CC(=O)N([C@H](c2cccnc2)[C@@H]2C[C@H]2C(=O)N[C@H]2CC(C)(C)Oc3ccccc32)C(=N)N1 [Example 2, (1R,2R)-2-((S)-(4,4-diethyl-2-imino-6-oxotetrahydropyrimidin-1(2H)-yl)(pyridin-3-yl)methyl)-N—((S)-2,2-dimethylchroman-4-yl)cyclopropanecarboxamide] | 0.9
26 | CC1(C)CC(=O)N([C@H](c2cccnc2)[C@@H]2C[C@H]2C(=O)NC2CC(C)(C)Oc3c(Cl)cccc32)C(=N)N1 (stereo partly shown) [Example 121A] | 2.5
27 | CCC1(CC)CC(=O)N(C[C@@H]2C[C@H]2C(=O)N[C@@H]2c3ccccc3C[C@H]2O)C(=N)N1 [Example 6B] | 269
28 | CC[C@]1(C)CC(=O)N([C@H](CCOC)[C@@H]2C[C@H]2C(=O)N[C@H]2C[C@H](C(F)(F)F)Oc3ccccc32)C(=N)N1 [Example 62B] | 0.8
29 | CC[C@]1(C)CC(=O)N([C@@H](c2cncc(F)c2)[C@@H]2C[C@H]2C(=O)N[C@@H]2c3ccccc3OCC2(C)C)C(=N)N1 [Example 102B] | 2.5
30 | COCC[C@H]([C@@H]1C[C@H]1C(=O)N[C@H]1CC(C)(C)Oc2cc(OC)ccc21)N1C(=N)NC(C)(C)CC1=O [Example 70B] | 19
31 | COc1cncc([C@H]([C@@H]2C[C@H]2C(=O)N[C@H]2CC(C)(C)Oc3ccccc32)N2C(=N)NC(C)(C)CC2=O)c1 [Example 40] | 3.1
32 | CC1(C)CC(=O)N([C@H](c2cccnc2)[C@@H]2C[C@H]2C(=O)N[C@H]2CC(C)(C)Oc3ccc(Cl)cc32)C(=N)N1 [Example 120] | 1
33 | CCC1(CC)CC(=O)N(C[C@H]2[C@H](C(=O)N[C@H]3CC(C)(C)Oc4ccccc43)C2(C)C)C(=N)N1 [Example 34] | 286
34 | COc1cccc2c1[C@@H](NC(=O)[C@@H]1C[C@H]1CN1C(=N)NC(C)(C)CC1=O)CC(C)(C)O2 [Example 73] | 192
35 | COCC[C@H]([C@@H]1C[C@H]1C(=O)N[C@H]1CC(C)(C)Oc2cc(C)c(C)cc21)N1C(=N)NC(C)(C)CC1=O [Example 138A] | 7.4
36 | CC1(C)CC(=O)N([C@H](c2cccnc2)[C@@H]2C[C@H]2C(=O)N[C@H]2CC(C)(C)Oc3cc(Cl)ccc32)C(=N)N1 [Example 91A] | 0.8
37 | COCC[C@H]([C@@H]1C[C@H]1C(=O)N[C@H]1CC(C)(C)Oc2ccc(F)cc21)N1C(=N)NC(C)(C)CC1=O [Example 72B] | 2.5

same assay, conditions: 72 h, 72 hours growth, LDH readout; Table 4 (unit inferred)

Row | Structure (SMILES) | EC50 [nM]
38 | CCC1(CC)CC(=O)N([C@H](CCOC)[C@@H]2C[C@H]2C(=O)NC2CC(C)(C)Oc3c(Cl)cccc32)C(=N)N1 (stereo partly shown) [Example 148A] | 2.7

same assay, conditions: 72 hours growth, LDH readout; Table 3

Row | Structure (SMILES) | EC50 [nM]
39 | CC1(C)CC(=O)N(C[C@@H]2C[C@H]2C(=O)NC2CC(C)(C)Oc3ccc(OC(F)(F)F)cc32)C(=N)N1 (stereo partly shown) [Example 125B] | 160
40 | CCC1(C)CC(NC(=O)[C@@H]2C[C@H]2[C@@H](CCOC)N2C(=N)NC(C)(C)CC2=O)c2ccccc2O1 (single isomer, unassigned) [Example 75C] | 7
41 | COCC1(C)CC(NC(=O)[C@@H]2C[C@H]2[C@@H](c2cccnc2)N2C(=N)NC(C)(C)CC2=O)c2ccccc2O1 (single isomer, unassigned) [Example 108C] | 6
42 | COCC[C@H]([C@@H]1C[C@H]1C(=O)NC1CC(C)(C(C)C)Oc2ccccc21)N1C(=N)NC(C)(C)CC1=O (single isomer, unassigned) [Example 80B] | 6.6
43 | COCC1(C)CC(NC(=O)[C@@H]2C[C@H]2[C@@H](c2cccnc2)N2C(=N)NC(C)(C)CC2=O)c2ccccc2O1 (single isomer, unassigned) [Example 108A] | 70
44 | COc1cccc2c1C(NC(=O)[C@@H]1C[C@H]1[C@@H](c1cccnc1)N1C(=N)NC(C)(C)CC1=O)CC(C)(C)O2 (stereo partly shown) [Example 96B] | 3.3
45 | CC1[C@@H](C(c2cccnc2)N2C(=N)NC(C)(C)CC2=O)[C@@H]1C(=O)N[C@H]1C[C@H](C(F)(F)F)Oc2ccccc21 (single isomer, unassigned) [Example 54B] | 130
46 | CCC1(C)CC(NC(=O)[C@@H]2C[C@H]2[C@@H](c2cccnc2)N2C(=N)NC(C)(C)CC2=O)c2ccccc2O1 (single isomer, unassigned) [Example 105C] | 0.8
47 | CC[C@]1(C)CC(=O)N(C(c2cncc(F)c2)[C@@H]2C[C@H]2C(=O)NC2c3ccccc3OC(C(F)(F)F)C2O)C(=N)N1 (single isomer, unassigned) [Example 104B] | 22
48 | CCC1(CC)CC(=O)N(CC2CC2C(=O)N[C@H]2CCOc3ccccc32)C(=N)N1 (stereo partly shown) [Example 4D] | 91
49 | COCC1(C)CC(NC(=O)[C@@H]2C[C@H]2[C@@H](c2cccnc2)N2C(=N)NC(C)(C)CC2=O)c2ccccc2O1 (single isomer, unassigned) [Example 108D] | 8.5
50 | CC1(C)CC(=O)N([C@H](c2cccnc2)[C@@H]2C[C@H]2C(=O)NC2CC(C)(C)Oc3ccc(C(F)(F)F)cc32)C(=N)N1 (single isomer, unassigned) [Example 109B] | 1
51 | CCC1(CC)CC(=O)N(C[C@@H]2C(C)[C@H]2C(=O)N[C@@H]2c3ccccc3OC(C)(C)[C@H]2O)C(=N)N1 (single isomer, unassigned) [Example 30A] | 45
52 | CCC1(C)CC(NC(=O)[C@@H]2C[C@H]2[C@@H](c2cccnc2)N2C(=N)NC(C)(C)CC2=O)c2ccccc2O1 (single isomer, unassigned) [Example 105A] | 0.9
53 | CCC1(CC)CC(=O)N(C[C@@H]2C(C)[C@H]2C(=O)N[C@H]2CC(C)(C)Oc3ccccc32)C(=N)N1 (single isomer, unassigned) [Example 25B] | 25
54 | CC1[C@@H](C(c2cccnc2)N2C(=N)NC(C)(C)CC2=O)[C@@H]1C(=O)N[C@H]1C[C@H](C(F)(F)F)Oc2ccccc21 (single isomer, unassigned) [Example 54A] | 1

same assay, conditions: 72 hours growth, LDH readout; Table 4 (unit inferred)

Row | Structure (SMILES) | EC50 [nM]
55 | CCC1(CC)CC(=O)N(C(CC(C)OC)[C@@H]2C[C@H]2C(=O)N[C@@H]2CC(C)(C)Oc3ccccc32)C(=N)N1 (single isomer, unassigned) [Example 143A] | 4.6
